Results published in ChEMBL document CHEMBL1201862, “PubChem BioAssay data set” (2004).
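Step 1: Grow cells in 96-well plates. Step 2: Expose to compound for 48 hours at 5 concentrations. Step 3: Interpolate endpoints linearly; if unreached, use highest concentration. GI50 marks 50% less growth.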 Calls of active or inactive are those of the source. Cut-off read from the data, not from the text of the source: active = GI50 up to about 1.1 µM and inactive = higher.

Assays:
Experiment in all cases: DTP human tumour cell line panel, 48 h
ACHN = system: ACHN
BT-549 = system: BT-549
HCT-15 = system: HCT-15
HOP-62 = system: HOP-62
Hs-578T = system: Hs-578T
KM12 = system: KM12
Malme-3M = system: Malme-3M
NCI-H23 = system: NCI-H23
OVCAR-4 = system: OVCAR-4
OVCAR-5 = system: OVCAR-5
SF-268 = system: SF-268
SK-MEL-5 = system: SK-MEL-5
SN12C = system: SN12C
SNB-75 = system: SNB-75
T47D = system: T47D
U-251 = system: U-251
UACC-257 = system: UACC-257
HT-29 = system: HT-29
RXF 393 = system: RXF 393
SF-539 = system: SF-539

SMILES | GI50 (ACHN) | GI50 (BT-549) | GI50 (HCT-15) [µM] | GI50 (HOP-62) | GI50 (Hs-578T) | GI50 (KM12) | GI50 (Malme-3M) | GI50 (NCI-H23) | GI50 (OVCAR-4) | GI50 (OVCAR-5) | GI50 (SF-268) | GI50 (SK-MEL-5) | GI50 (SN12C) | GI50 (SNB-75) | GI50 (T47D) | GI50 (U-251) | GI50 (UACC-257) | GI50 (HT-29) | GI50 (RXF 393) | GI50 (SF-539)
CCCCn1c(CSc2ccc(Cl)cc2)c(C(=O)OCC)c2cc(OC)c(Br)cc21 | > 100 µM (inactive) | > 100 µM (inactive) | > 100 | > 100 µM (inactive) | > 100 µM (inactive) | > 100 µM (inactive) | > 100 µM (inactive) | > 100 µM (inactive) | > 100 µM (inactive) | > 100 µM (inactive) | > 100 µM (inactive) | > 100 µM (inactive) | > 100 µM (inactive) | > 100 µM (inactive) | > 100 µM (inactive) | > 100 µM (inactive) | > 100 µM (inactive) | – | – | –
O=C1/C(=C/c2ccc(Br)s2)NC(=S)N1CN1CCOCC1 | 48 µM (inactive) | 34 µM (inactive) | 30.2 | > 100 µM (inactive) | 65.3 µM (inactive) | 84.3 µM (inactive) | > 100 µM (inactive) | 36.3 µM (inactive) | 61.9 µM (inactive) | 61.1 µM (inactive) | 87.7 µM (inactive) | 50 µM (inactive) | 45.4 µM (inactive) | 85.5 µM (inactive) | 49.5 µM (inactive) | 43 µM (inactive) | 66.8 µM (inactive) | 35.2 µM (inactive) | 21.3 µM (inactive) | –
CC(C)(C)/C(O)=C\c1nc2ccc(C(F)(F)F)cc2[nH]c1=O | > 100 µM (inactive) | > 100 µM (inactive) | > 100 | > 100 µM (inactive) | > 100 µM (inactive) | > 100 µM (inactive) | > 100 µM (inactive) | > 100 µM (inactive) | > 100 µM (inactive) | > 100 µM (inactive) | > 100 µM (inactive) | > 100 µM (inactive) | > 100 µM (inactive) | > 100 µM (inactive) | > 100 µM (inactive) | > 100 µM (inactive) | > 100 µM (inactive) | > 100 µM (inactive) | > 100 µM (inactive) | –
C=C(C)C(=O)N1c2ccc(OC)cc2CC1C(=O)OCC (stereo not given) | > 100 µM (inactive) | > 100 µM (inactive) | > 100 | > 100 µM (inactive) | > 100 µM (inactive) | > 100 µM (inactive) | – | > 100 µM (inactive) | > 100 µM (inactive) | > 100 µM (inactive) | > 100 µM (inactive) | > 100 µM (inactive) | > 100 µM (inactive) | 45.2 µM (inactive) | 26.7 µM (inactive) | > 100 µM (inactive) | > 100 µM (inactive) | > 100 µM (inactive) | – | > 100 µM (inactive)
CCN(CC)c1c(-c2c(OC(C)C)c(=O)c2=O)c(=O)n2ccsc2c1OC(C)=O | > 100 µM (inactive) | > 100 µM (inactive) | > 100 | > 100 µM (inactive) | 17.8 µM (inactive) | > 100 µM (inactive) | 39.7 µM (inactive) | > 100 µM (inactive) | > 100 µM (inactive) | > 100 µM (inactive) | > 100 µM (inactive) | > 100 µM (inactive) | > 100 µM (inactive) | 5.13 µM (inactive) | – | > 100 µM (inactive) | > 100 µM (inactive) | > 100 µM (inactive) | – | –
